Reference: paper PMC3440873 (Bioorganic & medicinal chemistry letters, 2011)

Key:
[1] = test system: MDA-MB-231 breast adenocarcinoma cells; conditions: MDA-MB-231 cells; for TRAIL sensitizing activity: compound 4 h, then TRAIL 20 h (Fig. 4)
BIR2 domain of XIAP = BIR2 domain of XIAP (Homo sapiens, UniProt P98170); conditions: from Ki values
BIR2 domain of XIAP, sequence (P98170 124-240 limits assumed): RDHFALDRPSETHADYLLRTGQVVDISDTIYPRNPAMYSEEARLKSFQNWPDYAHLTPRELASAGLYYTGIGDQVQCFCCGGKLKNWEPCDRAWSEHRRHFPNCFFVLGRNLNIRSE

| Compound | TRAIL sensitizing activity [1] | selectivity for BIR2 vs. BIR3 (BIR2 domain of XIAP) | LD50 of TRAIL ([1]; TRAIL alone) |
| --- | --- | --- | --- |
| CN[C@@H](C)C(=O)N[C@H](C(=O)N1CCC[C@H]1C(=O)N[C@@H]1CCCc2ccccc21)C(C)C [Compound 9f] | strong TRAIL sensitizing activity |  |  |
| CN[C@@H](C)C(=O)N[C@H](C(=O)N1CCC[C@H]1C(=O)NNc1ccccc1)C(C)C [Compound 9j] | slightly less potent | three-fold selective |  |
| TRAIL: apoptosis-inducing agent added to MDA-MB-231 cells at varying concentrations |  |  | could not be achieved |
